These are literature values, as cited in patent US8871945B2, “Process for preparation of rufinamide” (priority 2010, dated 2014).

As a reminder, the EC50 is the midpoint of the concentration-response curve.

The test system of series [1] is sodium channels. The settings on record: Rufinamide ≧1 μM; after a prolonged prepulse; cultured cortical neurons.
The test system of series [2] is sodium channels. The settings on record: cultured cortical neurons; read-out: EC50 for limiting sustained repetitive firing of sodium-dependent action potentials.

Turning to `NC(=O)c1cn(Cc2c(F)cccc2F)nn1` [Rufinamide, 1-(2,6-difluorobenzyl)-1H-1,2,3-triazole-4-carboxamide], in the series on sodium channels [1], the “sodium channel recovery from inactivation” value is reported as “significantly slowed”. Also, in the series on sodium channels [2], the EC50 was 3.8 µM.
